Laboratory results published in US10682367B2, “Antitumor arylnaphthalene ligand glycosides” (OHIO STATE INNOVATION FOUNDATION, priority 2016, dated 2020).
Converted amounts (≈) assume the structure as drawn.

How the values were obtained:
[1] = tested on: OVCAR3 ovarian cancer cell line; test: IC50 in ovarian cancer cell line OVCAR3; assay type: cell-based
Description: (§1) The compounds shown in FIG. 2 were tested against two different ovarian cancer cell lines (xenograft mouse model OVCAR3 and OVCAR8 ovarian cancer cell lines). […] A summary of the test data is shown in FIGS. 3A, 3B, and 4 and Table 3. A comparison of the IC50 values of the compounds in FIG. 2 in two of the ovarian cancer cell lines (OVCAR3 and OVCAR8) reveal subtle differences in activity.

[2] = tested on: OVCAR8 ovarian cancer cell line; test: IC50 in ovarian cancer cell line OVCAR8; assay type: cell-based
Description: as §1

[3] = Structure-activity remarks on potency of PHY analogues (test not named); details: relative to PHY-34 type acetal
[4] = Solubility, plate reader-based absorbance assay; assay type: physicochemical
Source text: A series of compounds were synthesized to improve their water solubility. In particular, phyllanthusmin derivatives including an arabinose derivative with a free C2 hydroxy group, have been explored to produce phosphate, succinate, and amino acid conjugates. In addition PHY-25 and PHY-30 have also been synthesized to contain similar alcohol functionality that can ultimately be utilized to improve water solubility. PHY-28 and PHY-29 containing a glucosamine moiety were also synthesized for improved water solubility. The water solubility of these and other PHY derivatives was assessed (Table 2) to establish a baseline of solubility in a series of 4 solutions. This was accomplished using a plate reader-based absorbance assay.
The solubility, maximum tolerated dose, and pharmacokinetics of the phyllanthusmins, facilitating the in vivo studies with PHY-34, were also determined. The solubility of the compounds were assessed in DMSO, PEG300, HPβCD, and PBS. The stability of PHY-34 was assessed in a formulation comprising PEG300 and saline at a 1:1 volume ratio. The solution was prepared at a concentration of 7 mg/ml. A plate reader-based absorbance assay or LC-MS/MS was used. Table 4 summarizes the solubility measurements. FIG. 5 and Table 5 summarize the stability measurements. FIGS. 6A and 6B show the concentration-time profile of PHY-34 in mouse plasma via different administration routes

[5] = tested on: HT-29 cells; test: Cytotoxicity / antiproliferative activity against HT-29 cells; assay type: cell-based; details: HT-29 cells, antiproliferative activity
Source text: The cytotoxicity of the compounds in FIG. 1 was screened against HT-29 cells by a previously reported procedure (Ren Y et al. J. Nat. Prod 2011, 74, 1117-1125). A summary of the results is described in Table 1.

Row | IC50 ([1]; OVCAR3) [nM] | IC50 ([2]; OVCAR8) [nM] | Solubility in 10% Cremaphor EL/PBS [4] [mg/mL] | Solubility in DMSO [4] [mg/mL] | Solubility in PBS [4] [mg/mL] | Solubility in PEG300 [4] [mg/mL] | Compound | IC50 [5] [nM] | other results
1 |  |  | 10 | 86 | 0.16 | 24 | phyllanthusmins C [PHY-20] | 1210 | 
2 |  |  |  |  |  |  | CC(=O)O[C@H]1C(=O)[C@@]2(C)[C@H]([C@H](OC(=O)c3ccccc3)[C@]3(O)C[C@H](OC(=O)[C@H](O)[C@@H](NC(=O)c4ccccc4)c4ccccc4)C(C)=C1C3(C)C)[C@]1(OC(C)=O)CO[C@@H]1C[C@@H]2O [TAXOL, Taxol, reference compound] |  | IC50 ([1]; Homo sapiens, OVCAR-3): 5.91 nM; IC50 ([2]; Homo sapiens, OVCAR-8): 7.76 nM
3 |  |  | 10 | 83 | 0.18 | 15 | phyllanthusmins C [PHY-11] |  | 
4 | 119 | 2.44 |  |  |  |  | COc1cc2c(OC3OC(CO)C4OC5(CCCC5)OC4C3O)c3c(c(-c4ccc5c(c4)OCO5)c2cc1OC)C(=O)OC3 (stereo not drawn) [PHY-43] |  | effect of acetal variation on potency (in words) [3]: well tolerated
5 | 12000 | 151 |  |  |  |  | COc1cc2c(OC)c3c(c(-c4ccc5c(c4)OCO5)c2cc1OC)C(=O)OC3 [PHY-26] |  | 
6 | 11.5 | 11.7 |  |  |  |  | COc1cc2c(OC3OCC4OC(C)(C)OC4C3O)c3c(c(-c4ccc5c(c4)OCO5)c2cc1OC)C(=O)OC3 (stereo not drawn) [PHY-30] | 10.8 | 
7 |  |  |  |  |  |  | C=CCOc1c2c(c(-c3ccc4c(c3)OCO4)c3cc(OC)c(OC)cc13)C(=O)OC2 [PHY-18] | 570 | 
8 | 4.85 | 7.04 |  | 86.8 (≈ 142 mM) |  | 25.4 (≈ 41.6 mM) | COCC1OC(Oc2c3c(c(-c4ccc5c(c4)OCO5)c4cc(OC)c(OC)cc24)C(=O)OC3)C(OC)C2OC(C)(C)OC12 (stereo not drawn) [PHY-35] |  | 
9 |  |  |  |  |  |  | COc1cc2c(OCCOCc3ccccc3)c3c(c(-c4ccc5c(c4)OCO5)c2cc1OC)C(=O)OC3 [PHY-17] | 1420 | 
10 | 1500 | 10.4 |  |  |  |  | COc1cc2c(OC3OC(CO)C(OC)C(OC)C3OC)c3c(c(-c4ccc5c(c4)OCO5)c2cc1OC)C(=O)OC3 (stereo not drawn) [PHY-25] | 1.7 | 
11 |  |  | 8.9 | 16 | 0.18 | 30 | phyllanthusmins B [PHY-3] |  | 

Row | Compound | IC50 ([1]; OVCAR3) [nM] | IC50 ([2]; OVCAR8) [nM] | Solubility in 10% Cremaphor EL/PBS [4] [mg/mL] | Solubility in DMSO [4] [mg/mL] | Solubility in PBS [4] [mg/mL] | Solubility in PEG300 [4] [mg/mL] | IC50 [5] [nM] | other results
12 | COc1cc2c(OC3OC(CO)C4OC5(CCCCC5)OC4C3O)c3c(c(-c4ccc5c(c4)OCO5)c2cc1OC)C(=O)OC3 (stereo not drawn) [PHY-42] | 377 | 1.99 |  |  |  |  |  | effect of acetal variation on potency (in words) [3]: well tolerated
13 | COc1cc2c(O[C@@H]3OC[C@H](OC(C)=O)[C@H](OC(C)=O)[C@H]3OC(C)=O)c3c(c(-c4ccc5c(c4)OCO5)c2cc1OC)C(=O)OC3 [PHY-7, 7-O-((2,3,4-tri-O-acetyl)-α-L-arabinopyranosyl) diphyllin] |  |  | 7.4 (≈ 11.6 mM) | 112 (≈ 175 mM) | 0.14 (≈ 0.219 mM) | 5.7 (≈ 8.93 mM) |  | 
